Where “and” joins values, the source holds several entries; their conditions need not be identical. Equal values may be shown once.
Experiments:
[1] = parameters: method as in doi:10.5772/INTECHOPEN.96336, doi:10.1016/j.molliq.2022.119285, PMID 25580898; settings: cited from earlier work
IFN-α 2b = target: T1, IFN-α 2b (Homo sapiens, UniProt P01563); experiment: Intrinsic fluorescence spectroscopy of IFN-α 2b with FILs (λmax shift, Stern–Volmer quenching); type: binding
T1 construct: purchased Sigma-Aldrich SRP4595; host or cells: E. coli
Description: The concentrations were chosen to cover the range where the different aggregates of the FILs are formed. Samples, equilibrated for 30 min at room temperature, and 400 μL of each solution were transferred to a quartz cuvette of 10 mm pathlength and excited at 280 nm, collecting the fluorescence intensity in a wavelength range of 300 to 450 nm. The width of the excitation and emission slit was set to 5 nm for both cases. The spectra of FIL solutions (blanks) were discounted to the spectra of FIL + protein samples to avoid any possible effect of FIL concentration increment in the fluorescence intensity.
A very well-known equation, the Stern–Volmer, was used to characterize the quenching occurring in this region. This equation characterizes the collisional quenching that can occur when the excited state of the fluorophore is disabled due to contact with another molecule (quencher), without chemical alteration. Therefore, the collisional quenching is described by:(11) F0/F=1+K[Q]=1+kqτ0[Q] where F0 and F are the fluorescence intensities of the fluorophore in the absence and presence of the quencher, respectively, K is the Stern–Volmer quenching constant, kq is the biomolecular quenching constant, τ0 is the unquenched lifetime, and [Q] is the quencher concentration. […] This value gives information on the sensitivity of the fluorophore to a quencher.

[2] = Conductivity titration: critical aggregation concentrations, ionization degree, Gibbs free energy of aggregation; type: physicochemical; parameters: First CAC (wFIL) / Third CAC (wFIL): unit not given here; settings: 25°C
Description: For this purpose, a CDM210 conductometer (Radiometer Analytical, Lyon, France) and a CDC749 electrode (Radiometer Analytical, Lyon, France) were utilized. The electrode was calibrated at 25 °C using two standard solutions of 0.1 and 0.01 D KCl (Radiometer Analytical). The standard solutions and samples were measured inside of a glass cell in a thermostated bath at 25 °C with constant magnetic stirring. […] Each sample was then placed on the cell, stirred, and had its ionic conductivity measured. […] This experimental procedure was carried out until the ionic conductivity reached a plateau. […] The ionic conductivity was measured at least three times before adding more solution and the uncertainty of each measurement was estimated to be less than 1%.
A thorough analysis of the conductivity profile was advanced by applying the Phillips definition, which studies the change of the slopes of the conductivity curve along with the variation in FIL concentration.
From the parameter α, the degree of counterion binding, β, can be calculated. This parameter is associated with the charge density at the surface, the size, and the hydrophobic nature of the aggregate. It is given by the following equation:β = 1 − α(1)
Another parameter was considered in this study related to the spontaneity of a surfactant to aggregate, given by the standard Gibbs free energy of aggregation, ΔGagg0 . This parameter is provided by the pseudophase model of micellization, using the equation:(2) ΔGagg0=RT(1+β)lnxCAC where R is the universal gas constant, T is the absolute temperature and xCAC corresponds to the value of CAC in molar fraction. As long as this parameter is more negative, this means that the process of aggregation in the specific CACs is more spontaneous.

[3] = parameters: method as in earlier work; settings: 25°C, ref [1], cited from earlier work
[4] = 10 μg/mL IFN-α 2b + 5 mM NaH2PO4 (pH=7.4)

T1 sequence (P01563 24-188): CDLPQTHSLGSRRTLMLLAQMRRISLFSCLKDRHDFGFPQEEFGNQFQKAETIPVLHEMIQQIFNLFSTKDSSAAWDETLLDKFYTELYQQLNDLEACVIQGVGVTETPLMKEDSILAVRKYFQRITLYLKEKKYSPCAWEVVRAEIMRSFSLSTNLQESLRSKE

Compound: CCn1cc[n+](C)c1.O=S(=O)([O-])C(F)(F)C(F)(F)C(F)(F)C(F)(F)F [[C2C1Im][C4F9SO3], 1-Ethyl-3-methylimidazolium perfluorobutanesulfonate]
- miscibility in water [1]: full miscibility in water
- Stern–Volmer quenching constant K (IFN-α 2b; IFN-α 2b 20 μg/mL, region ~14 mM to ~110 mM FIL, 5 mM NaH2PO4 pH 7.4, excitation 280 nm): 0.0106 mM⁻¹
- biomolecular quenching constant kq (IFN-α 2b; from K and τ0 of IFN-α 2b): 3.59e+09 M⁻¹ s⁻¹
- First CAC [2, 4]: 15.19 mmol/kg
- First CAC (wFIL) [2, 4]: 0.0062
- Gibbs free energy of aggregation ΔG0agg, First CAC [2, 4]: -5.5 kcal/mol
- Gibbs free energy of aggregation ΔG0agg, Second CAC [2, 4]: -4.85 kcal/mol
- Gibbs free energy of aggregation ΔG0agg, Third CAC [2, 4]: -5.69 kcal/mol
- Second CAC [2, 4]: 43.57 mmol/kg
- Second CAC (wFIL) [2, 4]: 0.0179
- Third CAC [2, 4]: 83.44 mmol/kg
- Third CAC (wFIL) [2, 4]: 0.0342
- ionization degree α, First CAC [2, 4]: 0.87
- ionization degree α, Second CAC [2, 4]: 0.85
- ionization degree α, Third CAC [2, 4]: 0.52
- First CAC ([2]; 5 mM NaH2PO4 (pH=7.4)): 13.75 mmol/kg
- First CAC (wFIL) ([2]; 5 mM NaH2PO4 (pH=7.4)): 0.0056
- Gibbs free energy of aggregation ΔG0agg, First CAC ([2]; 5 mM NaH2PO4 (pH=7.4)): -5.66 kcal/mol
- Gibbs free energy of aggregation ΔG0agg, Second CAC ([2]; 5 mM NaH2PO4 (pH=7.4)): -4.83 kcal/mol
- Gibbs free energy of aggregation ΔG0agg, Third CAC ([2]; 5 mM NaH2PO4 (pH=7.4)): -6.36 kcal/mol
- Second CAC ([2]; 5 mM NaH2PO4 (pH=7.4)): 46.13 mmol/kg
- Second CAC (wFIL) ([2]; 5 mM NaH2PO4 (pH=7.4)): 0.0189
- Third CAC ([2]; 5 mM NaH2PO4 (pH=7.4)): 83.13 mmol/kg and 80.35 mmol/kg
- Third CAC (wFIL) ([2]; 5 mM NaH2PO4 (pH=7.4)): 0.0341
- ionization degree α, First CAC ([2]; 5 mM NaH2PO4 (pH=7.4)): 0.85
- ionization degree α, Second CAC ([2]; 5 mM NaH2PO4 (pH=7.4)): 0.85
- ionization degree α, Third CAC ([2]; 5 mM NaH2PO4 (pH=7.4)): 0.34
- First CAC ([2]; 25 mM KH2PO4 (pH=6.8)): 1.99 mmol/kg
- First CAC (wFIL) ([2]; 25 mM KH2PO4 (pH=6.8)): 0.0008
- Gibbs free energy of aggregation ΔG0agg, First CAC ([2]; 25 mM KH2PO4 (pH=6.8)): -10.7 kcal/mol
- Gibbs free energy of aggregation ΔG0agg, Second CAC ([2]; 25 mM KH2PO4 (pH=6.8)): -5.76 kcal/mol
- Gibbs free energy of aggregation ΔG0agg, Third CAC ([2]; 25 mM KH2PO4 (pH=6.8)): -7.15 kcal/mol
- Second CAC ([2]; 25 mM KH2PO4 (pH=6.8)): 38.64 mmol/kg
- Second CAC (wFIL) ([2]; 25 mM KH2PO4 (pH=6.8)): 0.0158
- Third CAC ([2]; 25 mM KH2PO4 (pH=6.8)): 71.45 mmol/kg
- Third CAC (wFIL) ([2]; 25 mM KH2PO4 (pH=6.8)): 0.0293
- ionization degree α, First CAC ([2]; 25 mM KH2PO4 (pH=6.8)): 0.24
- ionization degree α, Second CAC ([2]; 25 mM KH2PO4 (pH=6.8)): 0.66
- ionization degree α, Third CAC ([2]; 25 mM KH2PO4 (pH=6.8)): 0.18
- First CAC ([2]; 100 mM HCl (pH=1.2)): 4.65 mmol/kg
- First CAC (wFIL) ([2]; 100 mM HCl (pH=1.2)): 0.0019
- Gibbs free energy of aggregation ΔG0agg, First CAC ([2]; 100 mM HCl (pH=1.2)): -11.1 kcal/mol
- ionization degree α, First CAC ([2]; 100 mM HCl (pH=1.2)): 0.003
- First CAC ([2]; 150 mM NaCl (pH=7.3)): 3.51 mmol/kg
- First CAC (wFIL) ([2]; 150 mM NaCl (pH=7.3)): 0.0014
- Gibbs free energy of aggregation ΔG0agg, First CAC ([2]; 150 mM NaCl (pH=7.3)): -10.7 kcal/mol
- Gibbs free energy of aggregation ΔG0agg, Second CAC ([2]; 150 mM NaCl (pH=7.3)): -5.47 kcal/mol
- Gibbs free energy of aggregation ΔG0agg, Third CAC ([2]; 150 mM NaCl (pH=7.3)): -7 kcal/mol
- Second CAC ([2]; 150 mM NaCl (pH=7.3)): 33.69 mmol/kg
- Second CAC (wFIL) ([2]; 150 mM NaCl (pH=7.3)): 0.0138
- Third CAC ([2]; 150 mM NaCl (pH=7.3)): 83.46 mmol/kg
- Third CAC (wFIL) ([2]; 150 mM NaCl (pH=7.3)): 0.0342
- ionization degree α, First CAC ([2]; 150 mM NaCl (pH=7.3)): 0.14
- ionization degree α, Second CAC ([2]; 150 mM NaCl (pH=7.3)): 0.75
- ionization degree α, Third CAC ([2]; 150 mM NaCl (pH=7.3)): 0.17
- First CAC ([2]; 150 mM NaH2PO4 (pH=7.4)): 14.57 mmol/kg
- First CAC (wFIL) ([2]; 150 mM NaH2PO4 (pH=7.4)): 0.0060
- Gibbs free energy of aggregation ΔG0agg, First CAC ([2]; 150 mM NaH2PO4 (pH=7.4)): -5.59 kcal/mol
- Gibbs free energy of aggregation ΔG0agg, Second CAC ([2]; 150 mM NaH2PO4 (pH=7.4)): -5.16 kcal/mol
- Gibbs free energy of aggregation ΔG0agg, Third CAC ([2]; 150 mM NaH2PO4 (pH=7.4)): -7.05 kcal/mol
- Second CAC ([2]; 150 mM NaH2PO4 (pH=7.4)): 32.93 mmol/kg
- Second CAC (wFIL) ([2]; 150 mM NaH2PO4 (pH=7.4)): 0.0135
- Third CAC ([2]; 150 mM NaH2PO4 (pH=7.4)): 68.76 mmol/kg
- Third CAC (wFIL) ([2]; 150 mM NaH2PO4 (pH=7.4)): 0.0282
- ionization degree α, First CAC ([2]; 150 mM NaH2PO4 (pH=7.4)): 0.85
- ionization degree α, Second CAC ([2]; 150 mM NaH2PO4 (pH=7.4)): 0.82
- ionization degree α, Third CAC ([2]; 150 mM NaH2PO4 (pH=7.4)): 0.21
- Amin, minimum area per surfactant molecule at the air/water interface [3]: 0.64 nm2
- 10^6 Γmax, maximum surface excess concentration ([3]; Water): 2.60 mol m-2
- CAC (wFIL), tensiometer ([3]; Water): 0.0375
- CAC, tensiometer ([3]; Water): 91.39 mmol⸱kg-1
- critical packing parameter Peq 8 ([3]; Water): 0.439
- critical packing parameter Peq 9 ([3]; Water): 0.442
- surface tension at CAC, γCAC ([3]; Water): 24.5 mN m-1
- ΔG0ad, standard free energy of adsorption ([3]; Water): -10.6 kcal/mol
- ΠCAC, efficacy to reduce the surface tension ([3]; Water): 44.4 mN m-1
